One data set has as its system PC3 xenograft. Nature of the data set: PC3 xenograft tumor model. The arrangement: species or system mice. The note with it: mouse, in vivo. How it is done:
(§1) Drugs. Compounds of the invention were synthesized and prepared for i.v. administration in a biocompatible vehicle. CPT-11 (Camptosar®, Pharmacia) was obtained as the pharmaceutical drug and was prepared in 5% dextrose-water (D5W). All preparations were made fresh weekly and injection volumes were adjusted to body weight (0.2 ml/20 g mouse).
(§2) Mice/Husbandry. Female nu/nu mice were obtained from Charles River, housed in static microisolators, and provided ad libitum with water and an irradiated standard rodent diet (Purina Pico-Lab Rodent Diet 20).
(§3) Standard Protocol. […] Animals were initially monitored twice weekly for tumor growth and then daily as the implants approached the desired size of approximately 100 mm^3. When the tumors grew to between 62-221 mg in calculated tumor weight, the animals were pair-matched into appropriate experimental treatment groups (8-10 animals/group) and treatment with test compounds was initiated. […] Tumor weights were calculated and body weights were taken twice weekly and animals were observed frequently for adverse drug effects. […]
(§4) Tumors were measured by determining the length and width of the tumor with a digital caliper. […]
(§5) Log cell kill (LCK) is a calculation that determines the percentage of tumor cells that are killed after the initiation of treatment and can be used as a quantitative measure of efficacy: […]

In data set [1] the test system is NCI panel of 60 cell lines. In words: cells. The method in brief: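 Cells in RPMI-1640/10% FCS plated at 5,000–40,000 cells/well, preincubated 24 h at 37° C, 5% CO2, then exposed 48 h to compound at 5 doses spanning 4 logs. Viability by sulforhodamine B total-protein staining after cold TCA fixation; absorbance read at 515 nm.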
A further data set relates to A2780 xenograft. Nature of the data set: A2780 xenograft tumor model. The arrangement: species or system mice. The following applies: mouse, in vivo. How it is done:
as §1, §2, §3, §4, §5

A short description of another data set: Aqueous solubility. The following applies: water (aqueous solution). Type of data set: physicochemical.
The nature of data set [2]: MTD/toxicity study in rats. It is filed as in vivo. The note with it: 50-80 mg/kg i/v, QDx5/2/5 schedule. How it is done: A similar scheme can also be employed in experimental rats and other animals. For example, to determine MTD in rats, 50-80 mg/kg of A37 was dosed i/v in a QDx5/2/5 schedule.
Another data set deals with quiescent tumor cells. Nature of the data set: Activity on quiescent tumor cells. Type of data set: cell-based.
Another data set concerns normal cells. Nature of the data set: Activity on normal cells. Type of data set: cell-based.
Another data set concerns the target T1, CK1 delta (Homo sapiens, UniProt P48730).
T1 construct: purchased Upstate 14-520
Nature of the data set: CK1-Delta kinase assay (B16 assay). It is filed as biochemical.

These results are taken from patent US20080146555A1, “Uses of Kinase Inhibitors and Compositions Thereof” (GPC Biotech, Inc, priority 2004, published 2008).

≈ marks a conversion by molar mass, not a printed value. Where a name gives a salt, the structure may show the parent alone. Read-outs that look alike come from different tables or passages of the source.

T1 sequence (P48730 whole entry): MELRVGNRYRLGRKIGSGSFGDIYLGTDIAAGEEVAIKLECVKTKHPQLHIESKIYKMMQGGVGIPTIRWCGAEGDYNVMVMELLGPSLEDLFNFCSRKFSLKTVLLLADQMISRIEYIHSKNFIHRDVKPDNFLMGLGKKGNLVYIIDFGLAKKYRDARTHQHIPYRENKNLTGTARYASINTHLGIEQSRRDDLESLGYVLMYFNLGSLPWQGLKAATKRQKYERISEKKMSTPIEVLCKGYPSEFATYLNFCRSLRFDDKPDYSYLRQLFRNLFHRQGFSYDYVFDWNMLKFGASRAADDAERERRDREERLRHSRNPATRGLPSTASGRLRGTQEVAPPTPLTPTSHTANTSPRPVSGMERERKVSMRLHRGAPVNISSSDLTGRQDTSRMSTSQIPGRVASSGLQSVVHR

On to `CC(C)N1CCN(C(=O)COc2ccc(-c3n[nH]c4c3C(=O)c3c(NC(=O)NN5CCOCC5)cccc3-4)cc2)CC1` [Compound A37], for which the “efficacy in PC3 xenograft tumor model” value in the data set with PC3 xenograft was “high efficacy”. In addition, the “NCI assay Ave TGI” value in data set [1] was 2060 nM. In the data set on A2780 xenograft, the “efficacy in A2780 xenograft tumor model” value is listed as “high efficacy”. Besides, the solubility in the data set “Aqueous solubility” was 15 to 20 mg/mL (≈ 26.1 to 34.9 mM). Moreover, the cardiotoxicity entry in data set [2] was “did not induce cardiotoxicity”.
In the case of `COCCN1CCN(Cc2ccc(-c3n[nH]c4c3C(=O)c3c(NC(=O)NN5CCOCC5)cccc3-4)cc2)CC1` [Compound B16, N-[3-(4-{[4-(2-methoxyethyl)piperazinyl]methyl}phenyl)-4-oxoindeno[2,3-d]pyrazol-5-yl](morpholin-4-ylamino)carboxamide dihydrochloride], the IC50 with quiescent tumor cells was 11 nM; in the data set with normal cells it was 10900 nM; on CK1 delta (CK1 delta, read-out: CSNK1A1 (CK1) Inhibition (IC50), B16) it was less than 50 nM; at CK1 delta (kinase panel, read-out: CK1 IC50 (B16)), less than 100 nM.
